This is an account of results in patent publication US20060058268A1, “Compounds and methods for treating diabetic vascular diseases” (priority 2004, published 2006).

Series [1] has as its system VCAM-1. The series can be described thus: VCAM-1 assay with ELISA readout (Examples 5-6). Format: cell-based. To be noted: for pIC50: TNF added with compound, incubated overnight (approximately 16 hours). How it is done:
Two to four confluent P150 plates are trypsinized and the cells transferred to a 50 mL conical centrifuge tube. The cells are pelleted, resuspended, and counted using the trypan blue exclusion method.
Cells are resuspended at a concentration of 36,000 cells/mL and 1 mL is aliquoted per well.
Cells are split into 24 well tissue culture plates. The cells in each well should be approximately 90-95% confluent by the following day. Cells should not be older than passage 8.
Compounds are initially screened at 50 μM and 10 μM. A 50 mM stock solution for each compound is prepared in culture medium. The stock solution is diluted to 5 mM and 1 mM. When 10 μL of the 5 mM solution is added to the well (1 mL medium/well), the final concentration will be 50 μM. Adding 10 μL of the 1 mM solution to the well will give a final concentration of 10 μM.
Compounds which will not go into solution in culture medium are resuspended in DMSO at a concentration of 25 mM. The stock solution is then diluted to the final concentration in culture medium. The old medium is aspirated and 1 mL of the new medium with the compound is added. For example, if the final concentration is 50 µM, the 2 μL of the 25 mM stock is added per mL of culture medium. The […] solution is diluted for lower concentrations.
The compounds are added to the plate (each compound is done in duplicate). One plate is done for VCAM expression and one plate is done for ICAM expression.
Immediately after the compounds are added, TNF is added to each well. 100 units/mL TNF is usually added to each well. Since each lot of TNF varies in the number of units, each new lot is titrated to determine the optimum concentration. Therefore this concentration will change. If 100 units/mL is being used, dilute the TNF to 10 units/μL and add 10 μL to each well.
(§1) The plates are incubated at 37° C., 5% CO2 overnight (approximately 16 hours). The next day the plates are checked under the microscope to see if there are any visual signs of toxicity. Records are made of any cell death, debris, or morphology changes, as well as insoluble compounds (particulate or turbity).
In order to assess MCP-1, the media (500 μL) is saved and frozen at −70° C. Wash cells once with roughly 1 ml/well of Hanks Balance Salt Solution (HBSS) or PBS. Gently empty the wash solution and then tap the plate onto paper towels. Add either 250 μL/well of HBSS+5% FCCS to the plank (no primary antibody wells) or 250 μL/well of primary antibody diluted in HBSS+5% FCS. Incubate for 30 minutes at 37° C. Wash the wells twice with 0.5 mL/well HBSS or PBS and gently tap the plates onto paper towels after the last wash. Add 250 μL/well of HRP-conjugated second antibody diluted in HBSS+5% FCS to every well including the blank wells (no primary antibody). Incubate at 37° C. for 30 minutes. Wash the wells four times with 0.5 mL/well HBSS or PBS and gently tap the plates onto paper towels after the last wash. Add 250 μL/well of substrate solution. Incubate at room temperature in the dark until there is adequate color development (blue). Note the length of time incubation was performed (typically 15-30 minutes). Add 75 μL/well stopper solution (8N sulfuric acid), and read at 450 nm.
In general terms: ELISA stands for enzyme-linked immunosorbent assay.

Series [2] relates to cells. Format: cell-based. On the set-up: unit not given beside the values. On the procedure:
as §1

pIC50: −log10 of the molar value. Bounds are passed on as bounds.

Consider `CN(C)S(=O)(=O)c1ccc(CSc2cc(C(C)(C)C)c(O)c(C(C)(C)C)c2)cc1` [2,6-di-tert-butyl-4-thio(4′-methyl-N,N-dimethylbenzene-sulfonamide)phenol], for which the pIC50 in series [1] is 4.70. In addition, the LD50 in series [2] came to 350.

As to “Butanedioic acid, (1-methylethylidine)bis[thio[2,6-bi(1,1-dimethylethyl)-4,1-phenylene}}ester”, the pIC50 in series [1] is under 4.30. The LD50 in series [2] is listed as 25.

`CCCCC(OC(C)=O)Sc1cc(C(C)(C)C)c(O)c(C(C)(C)C)c1` (stereo not drawn) [2,6-di-tert-butyl-4-thio((1′-(acetoxy))pentyl)phenol]: the LD50 in series [2] was found to be 100.

As to `CC(C)(C)c1cc(SCc2ccc(C(=O)O)o2)cc(C(C)(C)C)c1O` [2,6-di-tert-butyl-4-thio((2′-furancarboxylic acid)-5-methyl)phenol], in series [1], the negative-log IC50 (pIC50) was 4.40. This compound also had an LD50 in series [2] of 400.

With `CC(C)(C)c1cc(SCc2ccc([N+](=O)[O-])cc2[N+](=O)[O-])cc(C(C)(C)C)c1O` [2,6-di-tert-butyl-4-thio(2′,4′-dinitrobenzyl)phenol], the pIC50 in series [1] was 5.10. In series [2], the LD50 is 400.

Regarding `CC(C)(C)c1cc(SCCc2ccc([N+](=O)[O-])cc2)cc(C(C)(C)C)c1O` [2,6-di-tert-butyl-4-thio(4′-nitrophenethyl)phenol], the pIC50 in series [1] was 4.82. Moreover, in series [2], the LD50 came out at 0.4.

Consider `CC(C)(C)c1cc(SCc2ccc(C(F)(F)F)cc2)cc(C(C)(C)C)c1O` [(2,6-di-tert-butyl-4-thio(4′-(trifluoromethyl)benzyl)phenol], for which the negative logarithm of the IC50 (pIC50) in series [1] is 5.30. This compound had an LD50 in series [2] of 300.

As to `CC(C)(C)c1cc(SCc2ccc(CC(=O)O)cc2)cc(C(C)(C)C)c1O` [2,6-di-tert-butyl-4-thio-(4′(methyl)phenylacetic acid)) phenol], the negative-log IC50 (pIC50) in series [1] was 4.10. Further, in series [2], the LD50 was found to be 200.

Regarding `CC(C)(Sc1cc(C(C)(C)C)c(O)c(C(C)(C)C)c1)Sc1cc(C(C)(C)C)c(OCc2ccc([N+](=O)[O-])cc2)c(C(C)(C)C)c1` [Phenol, 4-[[1-[3,5-bis(1,1-dimethylethyl)4-[(4-nitrophenyl)methoxy]phenyl]thio]-1-methylethyl]thio]2,6-bis(1,1-dimethylethyl)-], the “VCAM-1 inhibition at [μM]” value in series [1] (at 50 μM) worked out at 30% at 50. In series [2], this compound returned an LD50 of over 100.

Take `CC(C)(Sc1cc(C(C)(C)C)c(O)c(C(C)(C)C)c1)Sc1cc(C(C)(C)C)c(OC(=O)c2ccc([N+](=O)[O-])o2)c(C(C)(C)C)c1` [2-Furancarboxylic acid, 5-nitro-, 4-[[1-[[3,5-bis(1,1-dimethylethyl)-4-hydroxyphenyl]thio]-1-methylethyl]thio]-2,6-bis(1,1-dimethylethyl)phenyl ester]: in series [1] (16 h), the negative-log IC50 (pIC50) was 4.60.

Turning to `Cc1cc(SC(C)(C)Sc2cc(C(C)(C)C)c(O)c(C(C)(C)C)c2)cc(C)c1OC(=O)CN` [Glycine, 4-[[1-[[3,5-bis(1,1-dimethylethyl)-4-hydroxyphenyl]thio]-1-methylethyl]thio]-2,6-dimethylphenyl ester], in series [1] (at 20 μM), the inhibition at 20 µM turned out to be 10%.

As for `CC(=O)Oc1ccc(CSc2cc(C(C)(C)C)c(O)c(C(C)(C)C)c2)cc1` [2,6-di-tert-butyl-4-thio(4′-acetoxybenzyl)phenol], the negative logarithm of the IC50 (pIC50) in series [1] is 4.74. This compound came in with an LD50 in series [2] of 75.

Consider `CC(C)(Sc1cc(C(C)(C)C)c(O)c(C(C)(C)C)c1)Sc1cc(C(C)(C)C)c(OCCCCO)c(C(C)(C)C)c1` [Phenol, 4-[[1-[[3,5-bis(1,1-dimethylethyl)-4-(4-hydroxybutoxy)phenyl]thio]-1-methylethyl]thio]-2,6-bis(1,1-dimethylethyl)-], for which the pIC50 in series [1] (16 h) is 3.90.

In the case of “Butanedioic acid, mono[4-[[1-[[3,5-bis(1,1-dimethylethyl)-4-methoxyphenyl]thio]1-methylethyl]thio]-2,6-bis(1,1-dimethylethyl)phenyl] ester”, in series [1], the pIC50 is under 4.30.

On to `CC(C)(C)c1cc(S(=O)(=O)Cc2ccc([N+](=O)[O-])cc2)cc(C(C)(C)C)c1O` [2,6-di-tert-butyl-4-(sulfonyl-(4′-nitrobenzyl))phenol], for which, in series [1], the pIC50 was 4.40. Moreover, the LD50 in series [2] is 100.

As to `CC(C)(Sc1cc(C(C)(C)C)c(O)c(C(C)(C)C)c1)Sc1cc(C(C)(C)C)c(OC(=O)CCCC(=O)O)c(C(C)(C)C)c1` [Pentanedioic acid mono[4-[[1-[[3,5-bis(1,1-dimethylethyl)-4-hydroxyphenyl]thio]-1-methylethyl]thio]-2,6-bis(1,1-dimethylethyl)phenyl] ester], in series [1] (16 h), the pIC50 is 5.06.

On to `CC(C)(C)c1cc(SCc2ccc(CCO)cc2)cc(C(C)(C)C)c1O` [2,6-di-tert-butyl-4-thio(4′-(methyl)phenylethyl alcohol))phenol], for which, in series [1], the negative logarithm of the IC50 (pIC50) is 4.82. In series [2], this compound had an LD50 of 50.

In the case of `CN(C)Cc1ccc(CSc2cc(C(C)(C)C)c(O)c(C(C)(C)C)c2)o1` [2,6-di-tert-butyl-4-thio(5′-methyl-2′-((dimethylamino)methyl)furan)phenol], in series [1], the pIC50 was 5.00.

Regarding `CC(C)(C)c1cc(SCc2ccc([N+](=O)[O-])cc2)cc(C(C)(C)C)c1O` [2,6-di-tert-butyl-4-thio(4′-nitrobenzyl)phenol], in series [1], the pIC50 was 5.00. For the same compound, in series [2], the LD50 worked out at 200.

In the case of `CC(C)(Sc1cc(C(C)(C)C)c(O)c(C(C)(C)C)c1)Sc1cc(C(C)(C)C)c(OCC(=O)N[C@@H](CCC(=O)O)C(=O)O)c(C(C)(C)C)c1` [Glutamic acid, N-[[4-[[1-[[3,5-bis(1,1-dimethylethyl)-4-hydroxyphenyl]thio]-1-methylethyl]thio]-2,6-bis(1,1-dimethylethyl)phenoxy]acetyl]-], in series [1] (16 h), the pIC50 is 4.12.

For “2,6-di-tert-butyl-4-thio(3′,5′-ditert-butyl,4′-hydroxy butanedioic acid ester)phenol”, the negative logarithm of the IC50 (pIC50) in series [1] is 5.22.

In the case of `CC(C)(Sc1cc(C(C)(C)C)c(O)c(C(C)(C)C)c1)Sc1cc(C(C)(C)C)c(OCC(O)CNCC(=O)O)c(C(C)(C)C)c1` (stereo not drawn) [Glycine, N-[3-[4-[[1-[[3,5-bis(1,1-dimethylethyl)-4-hydroxyphenyl]thio]-1-methylethyl]thio]-2,6-bis(1,1-dimethylethyl)phenoxy]2-hydroxypropyl]-], in series [1] (16 h), the pIC50 is 4.80.

On to `CCOCC(O)COc1c(C(C)(C)C)cc(SC(C)(C)Sc2cc(C(C)(C)C)c(O)c(C(C)(C)C)c2)cc1C(C)(C)C` (stereo not drawn) [Phenol, 4-[[1-[[3,5-bis(1,1-dimethylethyl)-4-(3-ethoxy-2-hydroxypropoxy)phenyl]thio]-1-methylethyl]thio]-2,6-bis(1,1-dimethylethyl)-], for which the pIC50 in series [1] (16 h) was 4.12.

Regarding `CC(C)(Sc1cc(C(C)(C)C)c(O)c(C(C)(C)C)c1)Sc1cc(C(C)(C)C)c(OCC(O)CO)c(C(C)(C)C)c1` (stereo not drawn) [1,2-Propanediol, 3-[4-[[1-[[3,5-bis(1,1-dimethylethyl)-4-hydroxyphenyl]thio]-1-methylethyl]thio]-2,6-bis(1,1-dimethylethyl)phenoxy]-], the negative-log IC50 (pIC50) in series [1] (16 h) is 4.52.

As to `CC(C)(Sc1cc(C(C)(C)C)c(O)c(C(C)(C)C)c1)Sc1cc(C(C)(C)C)c(OCCCC(=O)O)c(C(C)(C)C)c1` [Butanoic acid, 4-[4-[[1-[[3,5-bis(1,1-dimethylethyl)-4-hydroxyphenyl]thio]-1-methylethyl]thio]-2,6-bis(1,1-dimethylethyl)phenoxy]-], in series [1] (16 h), the negative logarithm of the IC50 (pIC50) is 4.96.

`CC(C)(Sc1cc(C(C)(C)C)c(O)c(C(C)(C)C)c1)Sc1cc(C(C)(C)C)c(OC[C@H]2OC(O)[C@H](O)[C@@H](O)[C@@H]2O)c(C(C)(C)C)c1` (stereo partly drawn) [D-Glucopyranose, 6-O-[4-[[1-[[3,5-bis(1,1-dimethylethyl)-4-hydroxyphenyl]thio]-1-methylethyl]thio]-2,6-bis(1,1-dimethylethyl)phenyl]-]: the negative logarithm of the IC50 (pIC50) in series [1] (16 h) was 5.00.

For `CC(C)(Sc1cc(C(C)(C)C)c(O)c(C(C)(C)C)c1)Sc1cc(C(C)(C)C)c(OC(=O)CN)c(C(C)(C)C)c1` [Glycine, 4-[[1-[[3,5-bis(1,1-dimethylethyl)-4-hydroxyphenyl]thio]-1-methylethyl]thio]-2,6-bis(1,1-dimethylethyl)phenyl ester], in series [1] (16 h), the pIC50 was 5.30.

Usually pIC50 stands for the negative decadic logarithm of the IC50, by convention in mol/L. The inhibition is how much of the control response was suppressed.
